Test results from patent publication US11000033B2, “Ketone or oxime compound, and herbicide” (NISSAN CHEMICAL CORPORATION, priority 2014, dated 2021).

Key:
Format in all cases: in vivo
Cyperus difformis = assay: Test Example 3: herbicidal effect by foliage application, Wagner pot (symbol E); conditions: application herbicide amount 320 g/ha
Method in brief: (§1)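 Weeds and rice were sown in alluvial soil under 0.1–0.5 cm of standing water and grown for 14 days in a 25–30 °C greenhouse. An emulsion of the compound, diluted in water to a set dose, was sprayed evenly onto the foliage. Effect was scored against fixed criteria 3 weeks after treatment.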

Leptochloa chinensis = assay: Test Example 3: herbicidal effect by foliage application, Wagner pot (symbol D); conditions: application herbicide amount 320 g/ha
Method in brief: as §1

Setaria viridis = assay: Test Example 4: herbicidal effect by soil treatment (symbol G); conditions: application herbicide amount 320 g/ha
Method in brief: (§2)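 Seeds were sown in sterilized diluvial soil, covered with about 1.5 cm of soil, and the soil surface was sprayed with a water-diluted emulsion of the compound at a predetermined rate. Plants grew in a greenhouse at 25° C. to 30° C.; effects were scored visually 3 weeks after application.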

Monochoria vaginalis = assay: Test Example 2: herbicidal activity, application during weed generation in submerged conditions (symbol C); conditions: Table 23; application herbicide amount 320 g/ha; grade 0-5 by criteria of Test Example 1
Method in brief: (§3)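 Alluvial soil in pots was flooded to a 4 cm water depth and sown with a mix of the three weed species, then grown in a greenhouse at 25° C. to 30° C. At the one- to two-leaf stage, an emulsifiable formulation diluted in water to a set dose was applied to the water surface. Effects were scored visually 3 weeks later.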

Digitaria ciliaris = assay: Test Example 4: herbicidal effect by soil treatment (symbol F); conditions: application herbicide amount 320 g/ha
Method in brief: as §2

[1] = system: Echinochloa crus-galli var. crus-galli; assay: Test Example 3: herbicidal effect by foliage application, Wagner pot (symbol H); conditions: application herbicide amount 320 g/ha
Method in brief: as §1

corn = assay: Test Example 4: effect on crop by soil treatment (symbol c); conditions: application herbicide amount 320 g/ha
Method in brief: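 Plants are raised in a greenhouse (25° C. to 30° C.) from spot-sown seed, which sits under about 1.5 cm of sterilized diluvial soil in a box shared with weed species.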

Stellaria media = assay: Test Example 5: herbicidal effect by foliage application, plastic box (symbol P); conditions: 320 g/ha, 3 weeks after application
Method in brief: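 Herbicide, formulated as an emulsion and diluted in water, is sprayed onto the aerial parts of 14-day seedlings. These were grown at 25° C. to 30° C. in sterilized diluvial soil; effects are graded after 3 weeks.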

Alopecurus myosuroides = assay: Test Example 4: herbicidal effect by soil treatment (symbol J); conditions: application herbicide amount 320 g/ha
Method in brief: as §2

Abutilon theophrasti = assay: Test Example 4: herbicidal effect by soil treatment (symbol M); conditions: application herbicide amount 320 g/ha
Method in brief: as §2

[2] = system: Echinochloa oryzacola Vasing.; assay: Test Example 2: herbicidal activity, application during weed generation in submerged conditions (symbol A); conditions: Table 23; application herbicide amount 320 g/ha; grade 0-5 by criteria of Test Example 1
Method in brief: as §3

wheat = assay: Test Example 5: effect on crop by foliage application, plastic box (symbol e); conditions: 320 g/ha, 3 weeks after application
Method in brief: (§4)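 Seeds were sown in spots in sterilized diluvial soil held in a plastic box 21 cm × 13 cm × 7 cm deep, covered with about 1.5 cm of soil, and grown in a greenhouse at 25° C. to 30° C.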

rapeseed = assay: Test Example 5: effect on crop by foliage application, plastic box (symbol g); conditions: 320 g/ha, 3 weeks after application
Method in brief: as §4

Compound | herbicidal effect on E, grade 0-5 (Cyperus difformis) | herbicidal effect on D (Leptochloa chinensis), grade 0-5 (Leptochloa chinensis) | G (Setaria viridis) herbicidal effect grade (Setaria viridis) | Herbicidal effect grade, C: Monochoria vaginalis (Monochoria vaginalis) | F (Digitaria ciliaris) herbicidal effect grade (Digitaria ciliaris) | herbicidal effect on H (Echinochloa crus-galli var. crus-galli), grade 0-5 [1] | c (corn) effect on crop grade (corn) | P: Stellaria media, herbicidal effect grade (Stellaria media) | J (Alopecurus myosuroides) herbicidal effect grade (Alopecurus myosuroides) | M (Abutilon theophrasti) herbicidal effect grade (Abutilon theophrasti) | Herbicidal effect grade, A: Echinochloa oryzacola Vasing. [2] | e: wheat, effect on crop grade (wheat) | g: rapeseed, effect on crop grade (rapeseed) | Herbicidal effect grade, G: Setaria viridis (Setaria viridis) | Herbicidal effect grade, F: Digitaria ciliaris (Digitaria ciliaris) | Effect on crop grade, c: corn (corn) | Herbicidal effect grade, J: Alopecurus myosuroides (Alopecurus myosuroides) | Herbicidal effect grade, M: Abutilon theophrasti (Abutilon theophrasti) | e: wheat, effect on crop (criteria of Test Example 1) (wheat) | g: rapeseed, effect on crop (criteria of Test Example 1) (rapeseed)
CON=C(C)CC1CC(OC(=O)C2CC2)=C(c2c(C)cc(C)cc2C)C1=O (stereo not drawn) [1-015] | 5 (Herbicidal ratio of 90% or more (almost completely withered)) | 5 (Herbicidal ratio of 90% or more (almost completely withered)) | 3 (Herbicidal ratio of 40% or higher and lower than 70%) | 4 (Herbicidal ratio of 70% or higher and lower than 90%) | 5 (Herbicidal ratio of 90% or more (almost completely withered)) | 5 (Herbicidal ratio of 90% or more (almost completely withered)) | 4 (Herbicidal ratio of 70% or higher and lower than 90%) | 4 (Herbicidal ratio of 70% or higher and lower than 90%) | 5 (Herbicidal ratio of 90% or more (almost completely withered)) | 5 (Herbicidal ratio of 90% or more (almost completely withered)) | 5 (Herbicidal ratio of 90% or more (almost completely withered)) | 5 (Herbicidal ratio of 90% or more (almost completely withered)) | 4 (Herbicidal ratio of 70% or higher and lower than 90%) |  |  |  |  |  |  | 
CON=C(C)CC1CC(OC(=O)C(C)(C)CCl)=C(c2c(C)cc(C)cc2C)C1=O (stereo not drawn) [1-016] | 5 (Herbicidal ratio of 90% or more (almost completely withered)) | 5 (Herbicidal ratio of 90% or more (almost completely withered)) | 3 (Herbicidal ratio of 40% or higher and lower than 70%) | 3 (Herbicidal ratio of 40% or higher and lower than 70%) | 5 (Herbicidal ratio of 90% or more (almost completely withered)) | 5 (Herbicidal ratio of 90% or more (almost completely withered)) | 4 (Herbicidal ratio of 70% or higher and lower than 90%) |  | 5 (Herbicidal ratio of 90% or more (almost completely withered)) | 5 (Herbicidal ratio of 90% or more (almost completely withered)) | 5 (Herbicidal ratio of 90% or more (almost completely withered)) | 5 (Herbicidal ratio of 90% or more (almost completely withered)) | 4 (Herbicidal ratio of 70% or higher and lower than 90%) |  |  |  |  |  |  | 
CON=C(C)CC1CC(OC(=O)C(C)(C)Oc2ccccc2)=C(c2c(C)cc(C)cc2C)C1=O (stereo not drawn) [1-017] | 5 (Herbicidal ratio of 90% or more (almost completely withered)) | 5 (Herbicidal ratio of 90% or more (almost completely withered)) | 5 (Herbicidal ratio of 90% or more (almost completely withered)) | 3 (Herbicidal ratio of 40% or higher and lower than 70%) | 5 (Herbicidal ratio of 90% or more (almost completely withered)) | 5 (Herbicidal ratio of 90% or more (almost completely withered)) | 4 (Herbicidal ratio of 70% or higher and lower than 90%) |  | 5 (Herbicidal ratio of 90% or more (almost completely withered)) | 5 (Herbicidal ratio of 90% or more (almost completely withered)) | 5 (Herbicidal ratio of 90% or more (almost completely withered)) | 5 (Herbicidal ratio of 90% or more (almost completely withered)) | 4 (Herbicidal ratio of 70% or higher and lower than 90%) |  |  |  |  |  |  | 
C=CCON=C(C)CC1CC(O)=C(c2c(C)cc(C)cc2C)C1=O (stereo not drawn) [1-018] | 3 (Herbicidal ratio of 40% or higher and lower than 70%) | 5 (Herbicidal ratio of 90% or more (almost completely withered)) | 3 (Herbicidal ratio of 40% or higher and lower than 70%) | 3 (Herbicidal ratio of 40% or higher and lower than 70%) | 5 (Herbicidal ratio of 90% or more (almost completely withered)) | 5 (Herbicidal ratio of 90% or more (almost completely withered)) | 4 (Herbicidal ratio of 70% or higher and lower than 90%) | 4 (Herbicidal ratio of 70% or higher and lower than 90%) | 5 (Herbicidal ratio of 90% or more (almost completely withered)) | 4 (Herbicidal ratio of 70% or higher and lower than 90%) | 5 (Herbicidal ratio of 90% or more (almost completely withered)) | 5 (Herbicidal ratio of 90% or more (almost completely withered)) | 4 (Herbicidal ratio of 70% or higher and lower than 90%) |  |  |  |  |  |  | 
C#CCON=C(C)CC1CC(O)=C(c2c(C)cc(C)cc2C)C1=O (stereo not drawn) [1-019] | 5 (Herbicidal ratio of 90% or more (almost completely withered)) | 5 (Herbicidal ratio of 90% or more (almost completely withered)) | 3 (Herbicidal ratio of 40% or higher and lower than 70%) | 2 (Herbicidal ratio of 20% or higher and lower than 40%) | 5 (Herbicidal ratio of 90% or more (almost completely withered)) | 5 (Herbicidal ratio of 90% or more (almost completely withered)) | 4 (Herbicidal ratio of 70% or higher and lower than 90%) | 4 (Herbicidal ratio of 70% or higher and lower than 90%) | 5 (Herbicidal ratio of 90% or more (almost completely withered)) | 4 (Herbicidal ratio of 70% or higher and lower than 90%) | 5 (Herbicidal ratio of 90% or more (almost completely withered)) | 5 (Herbicidal ratio of 90% or more (almost completely withered)) | 4 (Herbicidal ratio of 70% or higher and lower than 90%) |  |  |  |  |  |  | 
CCc1cc(Br)cc(C)c1C1=C(O)CC(C(C(C)=O)C(=O)OC)C1=O (stereo not drawn) [7-001] | 0 (Herbicidal ratio of 5% or lower (almost no effect)) | 5 (Herbicidal ratio of 90% or more (almost completely withered)) |  | 0 (Herbicidal ratio of 5% or lower (almost no effect)) |  | 4 (Herbicidal ratio of 70% or higher and lower than 90%) |  |  |  |  | 0 (Herbicidal ratio of 5% or lower (almost no effect)) |  |  | 4 (Herbicidal ratio of 70% or higher and lower than 90%) | 5 (Herbicidal ratio of 90% or more (almost completely withered)) | 0 (Herbicidal ratio of 5% or lower (almost no effect)) | 0 (Herbicidal ratio of 5% or lower (almost no effect)) | 0 (Herbicidal ratio of 5% or lower (almost no effect)) | 0 (Herbicidal ratio of 5% or lower (almost no effect)) | 0 (Herbicidal ratio of 5% or lower (almost no effect))
